Converted amounts (≈) assume the structure as drawn. Where two headings read alike, the source gives them in different places.
Columns and labels:
[1] = Solubility measurement (DMSO solution method), McIlvaine buffer pH 4.5 or 6.8; assay type: physicochemical; conditions: aqueous buffer, kinetic from dmso stock, DMSO stock diluted to 250 μM, 24 h shaking at ambient temperature
Procedure: The DMSO solution is diluted with an aqueous medium (Mcllvaine buffer with pH=4.5 or 6.8) to a final concentration of 250 μM. After 24 h of shaking at ambient temperature a potentially formed precipitate is removed by filtration. The concentration of the test compound in the filtrate is determined by LC-UV methods by calibrating the signal to the signal of a reference solution with complete dissolution of the test compound in acetonitrile/water (1:1) with known concentration.

[2] = tested on: KRAS G12V-dependent Ba/F3 cells; assay: Ba/F3 proliferation assay, KRAS G12V; assay type: cell-based; conditions: Mus musculus, BaF3, 72 h, AlamarBlue;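 also: proliferation IC50 in KRAS G12V-dependent Ba/F3 cells read by AlamarBlue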
Procedure: Plasmids containing KRASG12 mutants (i.e. […], G12C, G12V) are obtained from GeneScript. To generate KRASG12-dependent Ba/F3 models, Ba/F3 cells are transduced with retroviruses containing vectors that harbor KRASG12 isoforms. Platinum-E cells (Cell Biolabs) are used for retrovirus packaging. Retrovirus is added to Ba/F3 cells. To ensure infection, 4 μg/mL polybrene is added and cells are spinfected. […] Cells with an infection efficiency of 10% to 20% are further cultivated and puromycin selection with 1 μg/mL is initiated. As a control, parental Ba/F3 cells are used to show selection status. Selection is considered successful when parental Ba/F3 cells cultures died. To evaluate the transforming potential of KRASG12 mutations, the growth medium is no longer supplemented with IL-3. Ba/F3 cells harboring the empty vector are used as a control. Approximately ten days before conducting the experiments, puromycin is left out.
Compounds are added using an Access Labcyte Workstation with a Labcyte Echo 550 or 555 accoustic dispenser. All treatments are performed in technical duplicates. […] AlamarBlue™ (ThermoFisher), a viability stain, is added and fluorescence measured in the PerkinElmer Envision HTS Multilabel Reader. The raw data are imported into and analyzed with the Boehringer Ingelheim proprietary software MegaLab (curve fitting based on the program PRISM, GraphPad Inc.).

[3] = tested on: NCI-H358 cells; assay: NCI-H358 CTG proliferation assay (120 h) (NSCLC, G12C); assay type: cell-based, human; conditions: Homo sapiens
Procedure: NCI-H358 CTG Proliferation Assay (120 h) (NSCLC, G12C)
NCI-H358 cells (ATCC No. CRL-5807) are dispensed into white bottom opaque 96 well plates (Perkin Elmer cat no. 5680) at a density of 2000 cells per well in 100 μL RPMI-1640 ATCC-Formulation (Gibco #A10491)+10% FCS (fetal calf serum) (assay 1) or into black 384-well plates, flat and clear bottom (Greiner, PNr. 781091) at a density of 200 cells per well in 60 μl RPMI-1640 ATCC-Formulation (Gibco #A10491)+10% FCS (fetal calf serum) (assay 2). […] Compounds (10 mM stock in DMSO) are added at logarithmic dose series using the HP Digital Dispenser D300 (Tecan) (assay 1) or the ECHO acoustic liquid handler system (Beckman Coulter) (assay 2), normalizing for added DMSO and including DMSO controls. For the TO time point measurement, untreated cells are analyzed at the time of compound addition. Plates are incubated for 120 h, and cell viability is measured using CellTiter-Glo luminescent cell viability reagent (Promega product code G7570). Viability (stated as percent of control) is defined as relative luminescence units RLU of each well divided by the RLU of cells in DMSO controls. IC50 values are determined from viability measurements by non-linear regression using a four parameter model.

[4] = tested on: SK-CO-1 cells; assay: SK-CO-1 CTG proliferation assay (120 h) (CRC, G12V); assay type: cell-based; conditions: Homo sapiens; SK-CO-1 cells (CRC, G12V), CTG 120 h
Procedure: SK-CO-1 CTG Proliferation Assay (120 h) (CRC, G12V)
SK-CO-1 cells (ATCC HTB-39) are dispensed into 384-well plates, flat and clear bottom (Greiner, PNr. 781091) at a density of 500 cells per well in 60 μL EMEM (Sigma M5650)+10% Fetal Calf Serum (HyClone, PNr.: SH30084.03) and incubated at 37° C. in a CO2 incubator overnight. The next day, compounds (10 mM stock in DMSO) are added with the ECHO acoustic liquid handler system (Beckman Coulter), including DMSO controls. Plates are incubated for 120 h, and cell viability is measured using CellTiter-Glo luminescent cell viability reagent (Promega product code G7570). Viability (stated as percent of control) is defined as relative luminescence units RLU of each well divided by the RLU of cells in DMSO controls. IC50 values are determined from viability measurements by non-linear regression using a four-parameter model.

[5] = tested on: NCI-H2122 cells; assay: NCI-H2122 CTG proliferation assay (120 h) (NSCLC, G12C); assay type: cell-based; conditions: Homo sapiens
Procedure: NCI-H2122 CTG Proliferation Assay (120 h) (NSCLC, G12C)
The CTG assay is designed to measure quantitatively the proliferation of NCI-H2122 cells (ATCC CRL-5985), using the CellTiter Glow Assay Kit (Promega G7571). Cells are grown in RPMI medium (ATCC) supplemented with Fetal Calf Serum (Life Technologies, Gibco BRL, Cat. No. 10270-106). On “day 0” 200 NCI-H2122 cells are seeded in 60 μL RPMI ATCC+10% FCS+Penstrep in a black 384-well plate, flat and clear bottom (Greiner, PNr. 781091). Cells are then incubated in the plates at 37° C. in a CO2 incubator overnight. On day 1, compounds (10 mM stock in DMSO) are added with the ECHO acoustic liquid handler system (Beckman Coulter), including DMSO controls. Plates are incubated for 120 h, and cell viability is measured using CellTiter-Glo luminescent cell viability reagent (Promega product code G7570). Viability (stated as percent of control) is defined as relative luminescence units RLU of each well divided by the RLU of cells in DMSO controls. IC50 values are determined from viability measurements by non-linear regression using a four parameter model.

[6] = Plasma protein binding assay (PPB), equilibrium dialysis, 10% FCS in PBS; assay type: in vitro ADME; conditions: bovine, read-out: PPB 10% FCS (% fu)
Procedure: Binding of test compounds to plasma was determined using equilibrium dialysis (ED) and quantitative mass spectrometry interfaced with liquid chromatography (LC-MS). In brief, ED was performed with dialysis devices consisting of two chambers separated by a semipermeable membrane with a molecular weight cut-off of 5-10 kg/mol. One chamber was filled with 10% FCS in PBS containing 1-10 μmol/L test compound and the other chamber was filled with phosphate-buffer saline (PBS) with or without dextran. The dialysis chamber was incubated for 3-5 hours at 37° C. After incubation, protein was precipitated from aliquots of each chamber and the concentration of test compound in the supernatant of the plasma-containing compartment (Cserum) and of the buffer-containing compartment (Cbuffer) was determined by LC-MS. The fraction of unbound test compound (not bound to plasma) (fu) was calculated according to the following equation: […]

[7] = McIlvaine buffer pH 4.5, read-out: solubility pH 4.5
[8] = McIlvaine buffer pH 6.8, read-out: solubility pH 6.8
[9] = assay 2, CTG, read-out: H358 (assay 2) IC50

Row | Compound | solubility at 24 h [1, 7] | solubility at 24 h [1, 8] | IC50 [2] | IC50 [3, 9] | IC50 [4] | IC50 [5] | fraction unbound [6] | IC50 ([3]; assay 1, CTG, read-out: H358 (assay 1) IC50)
1 | C[C@H](Oc1cc(N2C[C@H](C)NC3(CC3)C2)nc(-c2onc3c2CCC[C@@]32CCCc3sc(N)c(C#N)c32)n1)[C@@H]1CCCN1C [I-8] | > 146 µg/mL | 116 µg/mL (≈ 189 µM) | 258 nM | – | 532 nM | 3040 nM | 0.77 | 874 nM
2 | C[C@H](Oc1cc(-n2cnc3cccnc32)nc(-c2noc3c2CCC[C@@]32CCCc3sc(N)c(C#N)c32)n1)[C@@H]1CCCN1C [II-65] | 7 µg/mL (≈ 11.5 µM) | < 1 µg/mL | 40 nM | 3220 nM | 360 nM | 2550 nM | 0.03 | –
3 | COC(=O)c1ccc(-c2cc(O[C@@H](C)[C@@H]3CCCN3C)nc(-c3noc4c3CCC[C@@]43CCCc4sc(N)c(C#N)c43)n2)o1 [II-114] | 41 µg/mL (≈ 66.7 µM) | < 1 µg/mL | 7 nM | 123 nM | 64 nM | 680 nM | 0.07 | –
4 | C[C@H](Oc1cc(-c2ccc(N)nc2)nc(-c2noc3c2CCC[C@@]32CCCc3sc(N)c(C#N)c32)n1)[C@@H]1CCCN1C [II-101] | 88 µg/mL (≈ 151 µM) | 2 µg/mL (≈ 3.43 µM) | 28 nM | 195 nM | 257 nM | 1520 nM | 0.23 | –
5 | C[C@H](Oc1cc(-n2ccnc2)nc(-c2noc3c2CCC[C@@]32CCCc3sc(N)c(C#N)c32)n1)[C@@H]1C[C@@H](F)CN1C [II-120] | 106 µg/mL (≈ 184 µM) | < 1 µg/mL | 13 nM | 190 nM | 126 nM | 1090 nM | 0.24 | –
6 | C[C@H](Oc1cc(-c2cn[nH]c2)nc(-c2noc3c2CCC[C@@]32CCCc3sc(N)c(C#N)c32)n1)[C@@H]1CCCN1C [II-87] | – | – | 25 nM | 106 nM | 71 nM | 1990 nM | 0.26 | –

Continued, values first:

Row | solubility at 24 h [1, 7] | solubility at 24 h [1, 8] | IC50 [2] | IC50 [3, 9] | IC50 [4] | IC50 [5] | fraction unbound [6] | IC50 ([3]; assay 1, CTG, read-out: H358 (assay 1) IC50) | Compound
7 | > 141 µg/mL | 112 µg/mL (≈ 186 µM) | 416 nM | 1980 nM | 530 nM | 2560 nM | 0.33 | – | C[C@H](Oc1cc(N2CC[C@H](N(C)C)C2)nc(-c2onc3c2CCC[C@@]32CCCc3sc(N)c(C#N)c32)n1)[C@@H]1CCCN1C [I-11]
8 | 109 µg/mL (≈ 185 µM) | 101 µg/mL (≈ 171 µM) | 45 nM | 286 nM | 87 nM | 916 nM | 0.5 | – | C[C@H](Oc1cc(N2CCC[C@H](O)C2)nc(-c2noc3c2CCC[C@@]32CCCc3sc(N)c(C#N)c32)n1)[C@@H]1CCCN1C [II-57]
9 | 83 µg/mL (≈ 139 µM) | < 1 µg/mL | 14 nM | 242 nM | 137 nM | 1020 nM | 0.01 | – | C[C@H](Oc1cc(-c2ccn(C3CC3)n2)nc(-c2noc3c2CCC[C@@]32CCCc3sc(N)c(C#N)c32)n1)[C@@H]1CCCN1C [II-98]
10 | > 141 µg/mL | 114 µg/mL (≈ 189 µM) | 304 nM | 1910 nM | 872 nM | 2840 nM | 0.36 | – | C[C@H](Oc1cc(N2CC[C@H](N(C)C)C2)nc(-c2noc3c2CCC[C@@]32CCCc3sc(N)c(C#N)c32)n1)[C@@H]1CCCN1C [II-49]
11 | > 133 µg/mL | > 123 µg/mL | 31 nM | 337 nM | 67 nM | 1350 nM | 0.64 | – | C[C@H](Oc1cc(N2CCC[C@@H](O)C2)nc(-c2noc3c2CCC[C@@]32CCCc3sc(N)c(C#N)c32)n1)[C@@H]1CCCN1C [II-59]
12 | – | – | 285 nM | 230 nM | 566 nM | 3690 nM | 0.29 | – | C[C@H](Oc1cc(-n2cc3c(n2)CCNC3)nc(-c2noc3c2CCC[C@@]32CCCc3sc(N)c(C#N)c32)n1)[C@@H]1CCCN1C [II-53]

Reference: patent US20240174690A1, “ANNULATED 2-AMINO-3-CYANO THIOPHENES AND DERIVATIVES FOR THE TREATMENT OF CANCER” (BOEHRINGER INGELHEIM INTERNATIONAL GMBH, priority 2021, published 2024)
